Data: publication PMC5011342, “A high throughput drug screening assay to identify compounds that promote oligodendrocyte differentiation using acutely dissociated and purified oligodendrocyte precursor cells” (BMC Research Notes, 2016)
Like-named read-outs stand apart in the source and are kept apart here.

Key:
expanded OPCs = experiment: cells; details: for viability at 0.1 µM / viability at 1 µM / viability at 10 µM: Rattus norvegicus, 72 h
Summary of the method: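 Expanded OPCs seeded at 10,000 cells/well in differentiation media, then exposed to NCC library compounds at 10, 1 and 0.1 µM (quadruplicate, 0.1% DMSO) for three days. Viability read as alamarBlue fluorescence (560/590 nm) after 4 h at 37 °C; tunicamycin 5 ng/ml served as toxicity control.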

[1] = system: acutely dissociated and purified rat OPCs; experiment: Acute OL differentiation assay (MBP expression/cell, immunofluorescent image quantification); assay type: cell-based; details: sheet "All OLga data"; for activation at 0.4 µM / activation at 2 µM / activation at 0.08 µM / activation at 10 µM: Rattus norvegicus; for activation at 0.08 µM: test compound at 0.08 uM, read-out: 0.08 uM (% Quet)
Summary of the method: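 Oligodendrocyte precursor cells were enriched from P6-P7 Sprague–Dawley rat brains by immunopanning (RAN-2 and GalC depletion, O4 selection), plated at 5000 cells/well in serum-free, mitogen-free differentiation media on PDL/laminin 96-well view plates, centrifuged at 200×g, and pre-incubated 1–2 h before test compounds were added in quadruplicate. On DIV4, cells were fixed, stained for MBP and DAPI, imaged automatically, and MBP expression per cell was quantified.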

[2] = read-out: 0.1 µM (% DMSO), alamarBlue viability of expanded OPCs, compound at 0.1 µM, sheet All Tox data
[3] = read-out: 1 µM (% DMSO), alamarBlue viability of expanded OPCs, compound at 1 µM, sheet All Tox data
[4] = read-out: 10 µM (% DMSO), alamarBlue viability of expanded OPCs, compound at 10 µM, sheet All Tox data
[5] = 0.4 uM test compound, relative to quetiapine, read-out: OL differentiation, 0.4 uM (% Quet)
[6] = 2 uM test compound, relative to quetiapine, read-out: OL differentiation, 2 uM (% Quet)
[7] = alamarBlue viability of expanded OPCs, compound at 0.1 µM, relative to DMSO control
[8] = alamarBlue viability of expanded OPCs, compound at 1 µM, relative to DMSO control
[9] = alamarBlue viability of expanded OPCs, compound at 10 µM, relative to DMSO control
[10] = MBP expression relative to quetiapine, NCC library screen
[11] = test compound at 0.4 uM, MBP expression relative to quetiapine, NCC library screen, read-out: 0.4 uM (% Quet)
[12] = test compound at 2 uM, MBP expression relative to quetiapine, NCC library screen, read-out: 2 uM (% Quet)
[13] = test compound at 10 uM, MBP expression relative to quetiapine, NCC library screen, read-out: 10 uM (% Quet)
[14] = test compound at 2 uM, NCC library screen, relative to quetiapine, read-out: 2 uM (% Quet)
[15] = test compound at 10 uM, NCC library screen, relative to quetiapine, read-out: 10 uM (% Quet)
[16] = read-out: 0.1 µM (% DMSO), alamarBlue viability, NCC library compound at 0.1 µM, sheet "All Tox data"
[17] = read-out: 1 µM (% DMSO), alamarBlue viability, NCC library compound at 1 µM, sheet "All Tox data"
[18] = read-out: 10 µM (% DMSO), alamarBlue viability, NCC library compound at 10 µM, sheet "All Tox data"
[19] = 10 uM test compound, relative to quetiapine, read-out: OL differentiation, 10 uM (% Quet)

CNCCCC12CCC(c3ccccc31)c1ccccc12 [Maprotiline]
viability at 0.1 µM (expanded OPCs; [2]): 78.2% | viability at 1 µM (expanded OPCs; [3]): 54.1% | viability at 10 µM (expanded OPCs; [4]): 13.8% | activation at 0.4 µM [1, 5]: 15.2% | activation at 2 µM [1, 6]: -52.5%

COC(=O)Nc1nc2ccc(C(=O)c3ccccc3)cc2[nH]1 [Mebendazole]
0.1 µM (% DMSO) (expanded OPCs; [7]): 47.2 % DMSO | 1 µM (% DMSO) (expanded OPCs; [8]): 53.6 % DMSO | 10 µM (% DMSO) (expanded OPCs; [9]): 45.7 % DMSO | activation at 0.08 µM [1, 10]: -29.9% | activation at 0.4 µM [1, 11]: -139%

Cc1cccc(CN2CCN(C(c3ccccc3)c3ccc(Cl)cc3)CC2)c1 (centres unmarked) [Meclizine]
0.1 µM (% DMSO) (expanded OPCs; [7]): 143.0 % DMSO | 1 µM (% DMSO) (expanded OPCs; [8]): 107.8 % DMSO | 10 µM (% DMSO) (expanded OPCs; [9]): 9.1 % DMSO | activation at 0.4 µM [1, 11]: 96.7%

Cc1ccc(Cl)c(Nc2ccccc2C(=O)O)c1Cl [Meclofenamic acid]
0.1 µM (% DMSO) (expanded OPCs; [7]): 91.1 % DMSO | 1 µM (% DMSO) (expanded OPCs; [8]): 93.6 % DMSO | 10 µM (% DMSO) (expanded OPCs; [9]): 93.6 % DMSO | activation at 2 µM [1, 12]: 14.1% | activation at 10 µM [1, 13]: -2.1%

CC(=O)O[C@]1(C(C)=O)CC[C@H]2[C@@H]3C[C@H](C)C4=CC(=O)CC[C@]4(C)[C@H]3CC[C@@]21C [Medroxyprogesterone acetate]
0.1 µM (% DMSO) (expanded OPCs; [7]): 104.2 % DMSO | 1 µM (% DMSO) (expanded OPCs; [8]): 103.1 % DMSO | 10 µM (% DMSO) (expanded OPCs; [9]): 118.4 % DMSO | activation at 2 µM [1, 14]: -30.5% | activation at 10 µM [1, 15]: -36.7%

CC(=O)[C@H]1CC[C@H]2[C@@H]3C[C@H](C)C4=CC(=O)CC[C@]4(C)[C@H]3[C@@H](O)C[C@]12C [Medrysone]
viability at 0.1 µM (expanded OPCs; [16]): 130% | viability at 1 µM (expanded OPCs; [17]): 125% | viability at 10 µM (expanded OPCs; [18]): 121% | activation at 2 µM [1, 14]: -6% | activation at 10 µM [1, 15]: -16.5%

Cc1cccc(Nc2ccccc2C(=O)O)c1C [Mefenamic Acid]
0.1 µM (% DMSO) (expanded OPCs; [7]): 92.7 % DMSO | 1 µM (% DMSO) (expanded OPCs; [8]): 91.8 % DMSO | 10 µM (% DMSO) (expanded OPCs; [9]): 83.6 % DMSO | activation at 2 µM [1, 14]: -4% | activation at 10 µM [1, 15]: -22.3%

OC(c1cc(C(F)(F)F)nc2c(C(F)(F)F)cccc12)C1CCCCN1 (centres unmarked) [Mefloquine]
0.1 µM (% DMSO) (expanded OPCs; [7]): 39.0 % DMSO | 1 µM (% DMSO) (expanded OPCs; [8]): 11.0 % DMSO | 10 µM (% DMSO) (expanded OPCs; [9]): 7.4 % DMSO | activation at 0.08 µM [1, 10]: -20.5% | activation at 0.4 µM [1, 11]: -134%

CC(=O)O[C@]1(C(C)=O)CC[C@H]2[C@@H]3C=C(C)C4=CC(=O)CC[C@]4(C)[C@H]3CC[C@@]21C [Megestrol acetate]
viability at 0.1 µM (expanded OPCs; [2]): 97.2% | viability at 1 µM (expanded OPCs; [3]): 89.3% | viability at 10 µM (expanded OPCs; [4]): 96.5% | activation at 2 µM [1, 6]: -21.6% | activation at 10 µM [1, 19]: -29.4%

Cc1cnc(NC(=O)C2=C(O)c3ccccc3S(=O)(=O)N2C)s1 [Meloxicam]
0.1 µM (% DMSO) (expanded OPCs; [7]): 93.1 % DMSO | 1 µM (% DMSO) (expanded OPCs; [8]): 94.6 % DMSO | 10 µM (% DMSO) (expanded OPCs; [9]): 86.1 % DMSO | activation at 2 µM [1, 12]: -8.5% | activation at 10 µM [1, 13]: 1.4%

CC1CCN(CCCC(=O)c2ccc(F)cc2)CC1.Cl [Melperone hydrochloride]
0.1 µM (% DMSO) (expanded OPCs; alamarBlue viability, NCC library compound at 0.1 µM, sheet "All Tox data"): 105.5 % DMSO | 1 µM (% DMSO) (expanded OPCs; alamarBlue viability, NCC library compound at 1 µM, sheet "All Tox data"): 130.9 % DMSO | 10 µM (% DMSO) (expanded OPCs; alamarBlue viability, NCC library compound at 10 µM, sheet "All Tox data"): 151.7 % DMSO | 2 uM (% Quet) ([1]; test compound at 2 uM, NCC library screen, relative to quetiapine): 39.6 % Quet | 10 uM (% Quet) ([1]; test compound at 10 uM, NCC library screen, relative to quetiapine): 43.4 % Quet

CC12CC3CC(C)(C1)CC(N)(C3)C2 [Memantine]
viability at 0.1 µM (expanded OPCs; [2]): 97.8% | viability at 1 µM (expanded OPCs; [3]): 93.2% | viability at 10 µM (expanded OPCs; [4]): 59.7% | 0.1 µM (% DMSO) (expanded OPCs; [7]): 93.3 % DMSO | 1 µM (% DMSO) (expanded OPCs; [8]): 84.1 % DMSO | 10 µM (% DMSO) (expanded OPCs; [9]): 67.0 % DMSO | activation at 2 µM [1, 6]: -9.2% | activation at 10 µM [1, 19]: -28.3% | activation at 2 µM [1, 12]: -64.4% | activation at 10 µM [1, 13]: -100%

Cc1cccc(C)c1NC(=O)C1CCCCN1C (centres unmarked) [Mepivacaine]
viability at 0.1 µM (expanded OPCs; [16]): 89.5% | viability at 1 µM (expanded OPCs; [17]): 89.9% | viability at 10 µM (expanded OPCs; [18]): 79.7% | activation at 2 µM [1, 14]: -6.4% | activation at 10 µM [1, 15]: -0.9%

Sc1ncnc2nc[nH]c12 [Mercaptopurine]
0.1 µM (% DMSO) (expanded OPCs; [7]): 92.3 % DMSO | 1 µM (% DMSO) (expanded OPCs; [8]): 92.7 % DMSO | 10 µM (% DMSO) (expanded OPCs; [9]): 95.9 % DMSO | activation at 2 µM [1, 12]: 3.6% | activation at 10 µM [1, 13]: -5.6%

C[C@@H](O)[C@H]1C(=O)N2C(C(=O)O)=C(S[C@@H]3CN[C@H](C(=O)N(C)C)C3)[C@H](C)[C@H]12 [Meropenem]
viability at 0.1 µM (expanded OPCs; [2]): 95.8% | viability at 1 µM (expanded OPCs; [3]): 98.1% | viability at 10 µM (expanded OPCs; [4]): 102% | activation at 2 µM [1, 6]: -4.2% | activation at 10 µM [1, 19]: 2.8%

Nc1ccc(O)c(C(=O)O)c1 [Mesalamine]
viability at 0.1 µM (expanded OPCs; [2]): 86.2% | viability at 1 µM (expanded OPCs; [3]): 92.2% | viability at 10 µM (expanded OPCs; [4]): 87.2% | activation at 2 µM [1, 6]: -9.1% | activation at 10 µM [1, 19]: -0.34%

O=S(=O)(O)CCS [Mesna]
0.1 µM (% DMSO) (expanded OPCs; [7]): 92.5 % DMSO | 1 µM (% DMSO) (expanded OPCs; [8]): 91.3 % DMSO | 10 µM (% DMSO) (expanded OPCs; [9]): 100.9 % DMSO | activation at 2 µM [1, 12]: -46% | activation at 10 µM [1, 13]: -38.6%

CN1CCCCC1CCN1c2ccccc2Sc2ccc([S+](C)[O-])cc21 (centres unmarked) [Mesoridazine]
viability at 0.1 µM (expanded OPCs; [2]): 82.1% | viability at 1 µM (expanded OPCs; [3]): 76.6% | viability at 10 µM (expanded OPCs; [4]): 28.3% | activation at 0.4 µM [1, 5]: 6.6% | activation at 2 µM [1, 6]: -3.1%

C[C@]12CCC(=O)C[C@@H]1CC[C@@H]1[C@@H]2CC[C@@]2(C)[C@H]1CC[C@]2(C)O [Mestanolone]
viability at 0.1 µM (expanded OPCs; [2]): 102% | viability at 1 µM (expanded OPCs; [3]): 94.1% | viability at 10 µM (expanded OPCs; [4]): 120% | activation at 2 µM [1, 6]: 0.8% | activation at 10 µM [1, 19]: -18%

C#C[C@]1(O)CC[C@H]2[C@@H]3CCc4cc(OC)ccc4[C@H]3CC[C@@]21C [Mestranol]
viability at 0.1 µM (expanded OPCs; [16]): 102% | viability at 1 µM (expanded OPCs; [17]): 103% | viability at 10 µM (expanded OPCs; [18]): 114% | activation at 2 µM [1, 6]: 92.5% | activation at 10 µM [1, 19]: -6.7%

CC(C)NCC(O)c1cc(O)cc(O)c1 (centres unmarked) [Metaproterenol]
0.1 µM (% DMSO) (expanded OPCs; [7]): 89.2 % DMSO | 1 µM (% DMSO) (expanded OPCs; [8]): 91.6 % DMSO | 10 µM (% DMSO) (expanded OPCs; [9]): 91.1 % DMSO | activation at 2 µM [1, 12]: -0.7% | activation at 10 µM [1, 13]: 3.5%

C[C@]12CC[C@H](O)CC1=CC[C@@H]1[C@@H]2CC[C@@]2(C)[C@H]1CC[C@]2(C)O [Methandriol]
viability at 0.1 µM (expanded OPCs; [2]): 91.2% | viability at 1 µM (expanded OPCs; [3]): 87.5% | viability at 10 µM (expanded OPCs; [4]): 88% | activation at 2 µM [1, 6]: 4.1% | activation at 10 µM [1, 19]: -0.6%

CC(=O)/N=c1/sc(S(N)(=O)=O)nn1C [Methazolamide]
0.1 µM (% DMSO) (expanded OPCs; [7]): 90.9 % DMSO | 1 µM (% DMSO) (expanded OPCs; [8]): 92.5 % DMSO | 10 µM (% DMSO) (expanded OPCs; [9]): 88.3 % DMSO | activation at 2 µM [1, 12]: -29% | activation at 10 µM [1, 13]: -40%
